# Source: patent publication US7393845B2 (H. Lundbeck A/S, priority 2001, dated 2008)
# Biological target: T1, human 5-HT1A receptors (Homo sapiens, UniProt P08908)
# T1 construct: expressed in transfected cells; cell homogenate
# T1 sequence (P08908 1-422): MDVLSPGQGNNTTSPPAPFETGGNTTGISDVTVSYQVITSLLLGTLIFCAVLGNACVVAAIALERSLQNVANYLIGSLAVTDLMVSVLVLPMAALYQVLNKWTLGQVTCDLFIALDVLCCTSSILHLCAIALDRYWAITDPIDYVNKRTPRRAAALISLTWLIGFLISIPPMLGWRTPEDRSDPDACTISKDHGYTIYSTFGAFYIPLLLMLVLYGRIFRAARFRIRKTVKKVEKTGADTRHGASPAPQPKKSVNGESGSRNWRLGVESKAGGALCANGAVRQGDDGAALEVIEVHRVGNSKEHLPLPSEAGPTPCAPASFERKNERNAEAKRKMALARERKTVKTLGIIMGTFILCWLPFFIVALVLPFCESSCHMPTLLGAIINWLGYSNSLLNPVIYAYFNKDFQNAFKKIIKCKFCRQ
# Assay: Inhibition of 3H-5-CT binding to human 5-HT1A receptors
# Conditions: not given
# Method: The affinity of the compounds of the invention to 5-HT1A receptors was determined by measuring the inhibition of binding of a radioactive ligand at 5-HT1A receptors as described in the following test:
# Inhibition of ^3H-5-CT Binding to Human 5-HT1A Receptors.
# By this method the inhibition by drugs of the binding of the 5-HT1A agonist ^3H-5-carboxamido tryptamine (^3H-5-CT) to cloned human 5-HT1A receptors stably expressed in transfected HeLa cells (HA7) (Fargin, A. et al. J. Biol. Chem. 1989, 264, 14848) is determined in vitro. The assay was performed as a modification of the method described by Harrington, M. A. et al. J. Pharmacol. Exp. Ther. 1994, 268, 1098. Human 5-HT1A receptors (40 μg of cell homogenate) were incubated for 15 minutes at 37° C. in 50 mM Tris buffer at pH 7.7 in the presence of ^3H-5-CT. Non-specific binding was determined by including 10 μM of metergoline. The reaction was terminated by rapid filtration through Unifilter GF/B filters on a Tomtec Cell Harvester. Filters were counted in a Packard Top Counter.
row,SMILES,IC50
1,N#Cc1cccnc1SCCN1CCN(c2cccc3c2OCCO3)CC1 [Compound 2a],< 0.3 µM

# Same assay, conditions: cloned human 5-HT1A receptors in HeLa cells (HA7), 15 minutes at 37° C., pH 7.7; read-out: IC50, inhibition of 3H-5-CT binding to human 5-HT1A receptors
row,SMILES,IC50
1,"Cc1cc(C(F)(F)F)c(C#N)c(SCCN2CCN(c3cccc4c3OCCO4)CC2)n1 [Compound 1b, 2-{2-[4-(2,3-Dihydrobenzo[1,4]dioxin-5-yl)piperazin-1-yl]ethylsulfanyl}-6-methyl-4-trifluoromethylnicotinonitrile]",< 0.3 µM
2,"Cc1cc(C)c(C#N)c(SCCN2CCN(c3cc(Cl)cc4c3OCC(=O)N4)CC2)n1 [Compound 2aa, 2-[2-[4-(6-Chloro-2,3-dihydro-1,4-benzoxazin-3-on-8-yl)piperazin-1-yl]ethylsulfanyl]-4,6-dimethylnicotinonitrile]",< 0.3 µM
3,"N#Cc1cccnc1SCCN1CCN(c2cc(Cl)cc3c2OCCN3)CC1 [Compound 2ah, 2-[2-[4-(6-Chloro-2,3-dihydro-1,4-benzoxazin-8-yl)piperazin-1-yl]ethylsulfanyl]nicotinonitrile]",< 0.3 µM
4,"Cc1cc(C)c(C#N)c(SCCN2CCN(c3cc(Cl)cc4c3OCCN4)CC2)n1 [Compound 2ai, 2-[2-[4-(6-Chloro-2,3-dihydro-1,4-benzoxazin-8-yl)piperazin-1-yl]ethylsulfanyl]-4,6-dimethylnicotinonitrile]",< 0.3 µM
5,"Cc1cc(Cl)nc(SCCN2CCN(c3cc(Cl)cc4c3OCCN4)CC2)c1C#N [Compound 2aj, 6-Chloro-2-[2-[4-(6-chloro-2,3-dihydro-1,4-benzoxazin-8-yl)piperazin-1-yl]ethylsulfanyl]-4-methylnicotinonitrile]",< 0.3 µM
6,"Cc1cc(N2CCCCC2)nc(SCCN2CCN(c3ccc(C#N)c4c3OCCO4)CC2)c1C#N [Compound 2c, 2-{2-[4-(8-Cyano-2,3-dihydrobenzo[1,4]dioxin-5-yl)piperazin-1-yl]ethylsulfanyl}-4-methyl-6-(piperidin-1-yl)nicotinonitrile]",< 0.3 µM
7,"Cc1cc(C)c(S(=O)(=O)c2ccccc2)c(SCCN2CCN(c3cccc4c3OCCO4)CC2)n1 [Compound 2l, 2-{3-[4-(2,3-Dihydrobenzo[1,4]dioxin-5-yl)piperazin-1-yl]ethylsulfanyl}-4,6-dimethyl-3-phenylsulfonylpyridine]",< 0.3 µM
8,"Cc1cc(Cl)nc(SCCN2CCN(c3cccc4c3OCCO4)CC2)c1C#N [Compound 2o, 6-Chloro-2-{3-[4-(2,3-dihydrobenzo[1,4]dioxin-5-yl)piperazin-1-yl]ethylsulfanyl}-4-methylnicotinonitrile]",< 0.3 µM
9,"Cc1cc(C)c(C#N)c(SCCN2CCN(c3ccc(C#N)c4c3OCCO4)CC2)n1 [Compound 2s, 2-{3-[4-(8-Cyano-2,3-dihydrobenzo[1,4]dioxin-5-yl)piperazin-1-yl]ethylsulfanyl}-4,6-dimethylnicotinonitrile]",< 0.3 µM
10,"Cc1nc(SCCN2CCN(c3ccc(C#N)c4c3OCCO4)CC2)c(C#N)c(C)c1Cl [Compound 2u, 5-Chloro-2-{3-[4-(8-cyano-2,3-dihydrobenzo[1,4]dioxin-5-yl)piperazin-1-yl]ethylsulfanyl}-4,6-dimethylnicotinonitrile]",< 0.3 µM
11,"N#Cc1cccnc1SCCN1CCN(c2cc(Cl)cc3c2OCC(=O)N3)CC1 [Compound 2z, 2-[2-[4-(6-Chloro-2,3-dihydro-1,4-benzoxazin-3-on-8-yl)piperazin-1-yl]ethylsulfanyl]nicotinonitrile]",< 0.3 µM

# Biological target: T2, cloned 5-HT1A receptors (Homo sapiens, UniProt P08908)
# T2 construct: expressed in transfected cells
# T2 sequence (P08908 1-422): T1 sequence (P08908 1-422)
# Assay: 5-HT1A antagonistic activity: antagonism of 5-HT induced inhibition of forskolin induced cAMP accumulation in transfected HeLa cells (HA7)
# Format: cell-based
# Conditions: not given
# Method: The 5-HT1A antagonistic activity of some of the compounds of the invention has been estimated in vitro at cloned 5-HT1A receptors stably expressed in transfected HeLa cells (HA7). In this test, 5-HT1A antagonistic activity is estimated by measuring the ability of the compounds to antagonize the 5-HT induced inhibition of forskolin induced cAMP accumulation. The assay was performed as a modification of the method described by Pauwels, P. J. et al. Biochem. Pharmacol. 1993, 45, 375.
row,SMILES,IC50
1,"Cc1cc(C(F)(F)F)c(C#N)c(SCCN2CCN(c3cccc4c3OCCO4)CC2)n1 [Compound 1b, 2-{2-[4-(2,3-Dihydrobenzo[1,4]dioxin-5-yl)piperazin-1-yl]ethylsulfanyl}-6-methyl-4-trifluoromethylnicotinonitrile]",< 7 µM
2,"Cc1ccc(C#N)c(SCCN2CCN(c3ccc(C#N)c4c3OCCO4)CC2)n1 [Compound 1e, {2-[4-(8-Cyano-2,3-dihydrobenzo[1,4]dioxin-5-yl)piperazin-1-yl]ethylsulfanyl}-6-methylnicotinonitrile]",< 7 µM
3,"N#Cc1ccc(N2CCN(CCCSc3ccc(C(F)(F)F)cn3)CC2)c2c1OCCO2 [Compound 1v, 2-{3-[4-(8-Cyano-2,3-dihydrobenzo[1,4]dioxin-5-yl)piperazin-1-yl]propylsulfanyl}-5-trifluoromethylpyridine]",< 7 µM
